Tests used:
Axl = biological target: T1, Axl (Homo sapiens, UniProt P30530); test: Phospho-AKT HTRF, HUVEC, Axl ABX-L, 8 pt; assay type: cell-based; conditions: HUVEC cells, pAkt(Ser473) HTRF, Axl ABX-L stimulation
T1 construct: Seed HUVECs (10K cells/well) in EBM-2 complete media; host or cells: HUVEC
T1 sequence (P30530 26-894): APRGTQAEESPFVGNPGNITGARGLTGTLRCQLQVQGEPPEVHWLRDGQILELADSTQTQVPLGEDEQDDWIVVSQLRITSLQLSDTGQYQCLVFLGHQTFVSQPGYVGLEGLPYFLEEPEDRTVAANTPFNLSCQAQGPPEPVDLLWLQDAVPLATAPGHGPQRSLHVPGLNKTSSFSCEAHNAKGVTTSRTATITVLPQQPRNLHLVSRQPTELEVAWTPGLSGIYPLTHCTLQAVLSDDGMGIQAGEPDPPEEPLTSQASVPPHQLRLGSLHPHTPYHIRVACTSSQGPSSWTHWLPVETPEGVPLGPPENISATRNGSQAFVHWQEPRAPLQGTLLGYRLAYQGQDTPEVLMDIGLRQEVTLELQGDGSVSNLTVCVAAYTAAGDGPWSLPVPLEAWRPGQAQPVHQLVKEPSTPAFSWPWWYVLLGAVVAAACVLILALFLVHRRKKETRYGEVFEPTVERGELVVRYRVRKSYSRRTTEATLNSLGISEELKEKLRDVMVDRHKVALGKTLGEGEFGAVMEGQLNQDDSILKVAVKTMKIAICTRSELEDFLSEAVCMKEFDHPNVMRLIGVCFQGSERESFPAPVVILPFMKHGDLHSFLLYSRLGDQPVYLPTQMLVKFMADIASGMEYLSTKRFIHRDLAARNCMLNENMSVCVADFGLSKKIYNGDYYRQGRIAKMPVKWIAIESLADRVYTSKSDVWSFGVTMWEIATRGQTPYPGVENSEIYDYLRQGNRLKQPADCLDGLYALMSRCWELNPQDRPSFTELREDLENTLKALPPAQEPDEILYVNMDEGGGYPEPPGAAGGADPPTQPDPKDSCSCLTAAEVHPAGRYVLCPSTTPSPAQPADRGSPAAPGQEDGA
Method: [The source words this procedure for another target and reports this target under the same test.] (§1) Example 13: PAKT HTRF-HUVEC Assay
(§2) Seed HUVECs (10K cells/well) in EBM-2 complete media (EBM-2 basal medium plus EGM-2 BulletKit supplements) overnight at 37° C., 5% CO2 in Costar 96-well white clear-bottom plates. Remove culture media and starve cells for 3-4 hours in 50 μL/well EBM-2 basal medium. Perform serial dilution of compounds in DMSO from 2.5 mM in 4-fold dilutions, and then dilute 1:125 in EBM-2 basal media. Mix 50 μL/well 2× compounds with 50 μL/well HUVECs in duplicate in Costar 96-well white clear-bottom plates. Incubate plates for 1 hour at 37° C., 5% CO2. Cross-link anti-human MerTK antibody to Biotin-SP-conjugated anti-mouse IgG antibody (1:1) to give final concentrations of 5 μg/mL of anti-human MerTK-XL. Stimulate HUVECs with 25 μL/well 5× anti-human MerTK-XL to give final concentrations of 1 ug/mL for 10 minutes at 37° C., 5% CO2. Completely remove media and lyse HUVECs with 40 uL:WELL per well of Cisbio HTRF 1× lysis buffer. Performed pAkt(Ser473) HTRF assay in ProxiPlate-384 Plus, white 384-shallow well microplate according to the vendor protocol and read plates with a SpectralMax Paradigm plate reader. Enter the HTRF values into Athena (Rigel) for curve fitting, EC50 calculation, and database storage.

MerTK = biological target: T2, MerTK (Homo sapiens, UniProt Q12866); test: Phospho-AKT HTRF, HUVEC, Mer-XL, 8 pt (pAKT HTRF-HUVEC assay, anti-human MerTK-XL stimulation); assay type: cell-based; conditions: HUVEC cells, pAkt(Ser473) HTRF, anti-human MerTK-XL stimulation 1 ug/mL 10 minutes
T2 construct: Seed HUVECs (10K cells/well) in EBM-2 complete media; host or cells: HUVEC
T2 sequence (Q12866 21-999): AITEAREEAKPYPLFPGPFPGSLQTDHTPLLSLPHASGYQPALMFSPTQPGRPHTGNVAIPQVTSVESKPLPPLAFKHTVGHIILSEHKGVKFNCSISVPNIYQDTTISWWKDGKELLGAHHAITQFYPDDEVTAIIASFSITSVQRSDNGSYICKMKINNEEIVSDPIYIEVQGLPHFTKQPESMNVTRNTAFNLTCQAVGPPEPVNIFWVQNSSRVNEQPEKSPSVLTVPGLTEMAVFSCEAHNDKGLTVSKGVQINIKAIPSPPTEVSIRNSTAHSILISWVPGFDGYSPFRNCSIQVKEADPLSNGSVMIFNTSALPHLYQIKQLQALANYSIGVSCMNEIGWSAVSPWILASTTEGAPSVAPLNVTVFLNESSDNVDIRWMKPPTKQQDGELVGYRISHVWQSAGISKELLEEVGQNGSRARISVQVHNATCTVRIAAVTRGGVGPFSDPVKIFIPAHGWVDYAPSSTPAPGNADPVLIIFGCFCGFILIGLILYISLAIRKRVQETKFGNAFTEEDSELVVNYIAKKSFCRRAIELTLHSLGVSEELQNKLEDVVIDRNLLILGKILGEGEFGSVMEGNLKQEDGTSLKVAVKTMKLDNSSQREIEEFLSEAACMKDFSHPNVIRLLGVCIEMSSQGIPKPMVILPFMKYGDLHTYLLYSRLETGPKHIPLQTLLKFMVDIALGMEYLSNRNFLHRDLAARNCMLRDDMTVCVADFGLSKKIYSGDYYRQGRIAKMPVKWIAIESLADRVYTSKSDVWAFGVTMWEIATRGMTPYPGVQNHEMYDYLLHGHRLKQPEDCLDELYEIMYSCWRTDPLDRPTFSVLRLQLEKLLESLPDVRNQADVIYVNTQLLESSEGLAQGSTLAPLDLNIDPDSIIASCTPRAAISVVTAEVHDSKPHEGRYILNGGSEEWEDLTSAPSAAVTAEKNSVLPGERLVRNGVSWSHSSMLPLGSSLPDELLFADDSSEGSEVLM
Method: as §1, §2

| Structure (SMILES) | EC50 (Axl) | EC50 (MerTK) |
| --- | --- | --- |
| COc1cc2c(Oc3ccc(NC(=O)c4cc(N5CCC(O)CC5)ccn4)nc3)ccnc2cc1OCCCN1CCOCC1 [Compound 8, 4-(4-Hydroxypiperidin-1-yl)-N-(5-((6-methoxy-7-(3-morpholino-propoxy)quinolin-4-yl)oxy)pyridin-2-yl)picolinamide, trifluoroacetic acid] | 228 nM | 90.9 nM |
| COc1cc2c(Oc3ccc(NC(=O)c4cc(-c5ccccc5)c5c(n4)C4CCN5CC4)nc3)ccnc2cc1OCCCN1CCOCC1 [Compound 2, N-(5-((6-Methoxy-7-(3-morpholinopropoxy)quinolin-4-yl)oxy)pyridin-2-yl)-8-phenyl-3,4-dihydro-2H-1,4-ethano-1,5-naphthyridine-6-carboxamide] | 40.8 nM | 47 nM |
| COc1cc2c(Oc3ccc(NC(=O)c4cc(N5CCOCC5)ccn4)nc3)ccnc2cc1OCCCN1CCOCC1 [Compound 14, N-(5-((6-methoxy-7-(3-morpholinopropoxy)quinolin-4-yl)oxy)pyridin-2-yl)-4-morpholinopicolinamide] | 805 nM | 430 nM |
| COc1cc2c(Oc3ccc(NC(=O)c4cccc(N5CCC(C)(C)CC5)n4)nc3)ccnc2cc1OCCCN1CCOCC1 [Compound 27, 6-(4,4-dimethylpiperidin-1-yl)-N-(5-((6-methoxy-7-(3-morpholinopropoxy)quinolin-4-yl)oxy)pyridin-2-yl)picolinamide] | 84.9 nM | 102 nM |
| COc1cc2c(Oc3ccc(NC(=O)c4cc(N5CC6(CCOCC6)C5)ccn4)nc3)ccnc2cc1OCCCN1CCOCC1 [Compound 18, N-(5-((6-methoxy-7-(3-morpholinopropoxy)quinolin-4-yl)oxy)pyridin-2-yl)-4-(7-oxa-2-azaspiro[3.5]nonan-2-yl)picolinamide] | 114 nM | 98 nM |
| COc1cc2c(Oc3ccc(NC(=O)c4cccc(N5CCCC5)n4)nc3)ccnc2cc1OCCCN1CCOCC1 [Compound 26, N-(5-((6-methoxy-7-(3-morpholinopropoxy)quinolin-4-yl)oxy)pyridin-2-yl)-6-(pyrrolidin-1-yl)picolinamide] | 32 nM | 7 nM |
| COc1cc2c(Oc3ccc(NC(=O)c4cc(N5CC(F)(F)C5)ccn4)nc3)ccnc2cc1OCCCN1CCOCC1 [Compound 20, 4-(3,3-difluoroazetidin-1-yl)-N-(5-((6-methoxy-7-(3-morpholinopropoxy)quinolin-4-yl)oxy)pyridin-2-yl)picolinamide] | 163 nM | 209 nM |
| COc1cc2c(Oc3ccc(NC(=O)c4cc(N5CCC(c6ccccc6)CC5)ccn4)nc3)ccnc2cc1OCCCN1CCOCC1 [Compound 17, N-(5-((6-methoxy-7-(3-morpholinopropoxy)quinolin-4-yl)oxy)pyridin-2-yl)-4-(4-phenylpiperidin-1-yl)picolinamide] | 1370 nM | 1640 nM |
| COc1cc2c(Oc3ccc(NC(=O)c4cc(N5CCC(O)CC5)ccn4)nc3)ccnc2cc1OCCCN1CCOCC1 [Compound 11, 4-(4-Hydroxypiperidin-1-yl)-N-(5-((6-methoxy-7-(3-morpholino-propoxy)quinolin-4-yl)oxy)pyridin-2-yl)picolinamide] | 197 nM | 86 nM |

Next, values leading:

| EC50 (Axl) | EC50 (MerTK) | Structure (SMILES) |
| --- | --- | --- |
| 38.7 nM | 6.1 nM | COc1cc2c(Oc3ccc(NC(=O)c4cccc(N5CCC(F)(F)CC5)n4)nc3)ccnc2cc1OCCCN1CCOCC1 [Compound 28, 6-(4,4-difluoropiperidin-1-yl)-N-(5-((6-methoxy-7-(3-morpholinopropoxy)quinolin-4-yl)oxy)pyridin-2-yl)picolinamide] |
| 649 nM | 459 nM | COc1cc2c(Oc3ccc(NC(=O)c4csc(N5CCC(O)CC5)n4)nc3)ccnc2cc1OCCCN1CCOCC1 [Compound 45, 2-(4-hydroxypiperidin-1-yl)-N-(5-((6-methoxy-7-(3-morpholinopropoxy)quinolin-4-yl)oxy)pyridin-2-yl)thiazole-4-carboxamide, hydrochloric acid] |
| 147 nM | 27.2 nM | COc1cc2c(Oc3ccc(NC(=O)c4csc(Br)n4)nc3)ccnc2cc1OCCCN1CCOCC1 [Compound 40, 2-bromo-N-(5-((6-methoxy-7-(3-morpholinopropoxy)quinolin-4-yl)oxy)pyridin-2-yl)thiazole-4-carboxamide] |
| 651 nM | 690 nM | CCOC1CCN(c2cccc(C(=O)Nc3ccc(Oc4ccnc5cc(OCCCN6CCOCC6)c(OC)cc45)cn3)n2)CC1 [Compound 29, 6-(4-ethoxypiperidin-1-yl)-N-(5-((6-methoxy-7-(3-morpholinopropoxy)quinolin-4-yl)oxy)pyridin-2-yl)picolinamide] |
| 2120 nM | 640 nM | COc1cc2c(Oc3ccc(NC(=O)c4csc(N5CCC(O)CC5)n4)nc3)ccnc2cc1OCCCN1CCOCC1 [Compound 41, 2-(4-hydroxypiperidin-1-yl)-N-(5-((6-methoxy-7-(3-morpholinopropoxy)quinolin-4-yl)oxy)pyridin-2-yl)thiazole-4-carboxamide] |
| 130 nM | 119 nM | COc1cc2c(Oc3ccc(NC(=O)c4ncc(N5CCCCC5)s4)nc3)ccnc2cc1OCCCN1CCOCC1 [Compound 47, N-(5-((6-methoxy-7-(3-morpholinopropoxy)quinolin-4-yl)oxy)pyridin-2-yl)-5-(piperidin-1-yl)thiazole-2-carboxamide] |
| 344 nM | 238 nM | COc1cc2c(Oc3ccc(NC(=O)c4ncc(-c5ccccc5)s4)nc3)ccnc2cc1OCCCN1CCOCC1 [Compound 48, N-(5-((6-methoxy-7-(3-morpholinopropoxy)quinolin-4-yl)oxy)pyridin-2-yl)-5-phenylthiazole-2-carboxamide] |
| 20.9 nM | 12.8 nM | COc1cc2c(Oc3ccc(NC(=O)c4csc(N5CCCCC5)n4)nc3)ccnc2cc1OCCCN1CCOCC1 [Compound 46, N-(5-((6-methoxy-7-(3-morpholinopropoxy)quinolin-4-yl)oxy)pyridin-2-yl)-2-(piperidin-1-yl)thiazole-4-carboxamide] |
| 327 nM | 183 nM | COc1cc2c(Oc3ccc(NC(=O)c4cc(C(F)(F)F)ccn4)nc3)ccnc2cc1OCCCN1CCOCC1 [Compound 34, N-(5-((6-Methoxy-7-(3-morpholinopropoxy)quinolin-4-yl)oxy)pyridin-2-yl)-4-(trifluoromethyl)picolinamide] |
